Values after ≈ are worked out from the molar mass of the structure shown.
Assays:
P2X purinoceptor 7 [1] = biological target: T1, P2X purinoceptor 7 (Rattus norvegicus, UniProt Q64663); test: Antagonist activity at rat P2X7 receptor expressed in 1321N1 cells assessed as inhibition of Bz-ATP-induced Ca2+ flux after 30 mins by FLIPR assay; assay type: cell-based
T1 sequence (Q64663 whole entry): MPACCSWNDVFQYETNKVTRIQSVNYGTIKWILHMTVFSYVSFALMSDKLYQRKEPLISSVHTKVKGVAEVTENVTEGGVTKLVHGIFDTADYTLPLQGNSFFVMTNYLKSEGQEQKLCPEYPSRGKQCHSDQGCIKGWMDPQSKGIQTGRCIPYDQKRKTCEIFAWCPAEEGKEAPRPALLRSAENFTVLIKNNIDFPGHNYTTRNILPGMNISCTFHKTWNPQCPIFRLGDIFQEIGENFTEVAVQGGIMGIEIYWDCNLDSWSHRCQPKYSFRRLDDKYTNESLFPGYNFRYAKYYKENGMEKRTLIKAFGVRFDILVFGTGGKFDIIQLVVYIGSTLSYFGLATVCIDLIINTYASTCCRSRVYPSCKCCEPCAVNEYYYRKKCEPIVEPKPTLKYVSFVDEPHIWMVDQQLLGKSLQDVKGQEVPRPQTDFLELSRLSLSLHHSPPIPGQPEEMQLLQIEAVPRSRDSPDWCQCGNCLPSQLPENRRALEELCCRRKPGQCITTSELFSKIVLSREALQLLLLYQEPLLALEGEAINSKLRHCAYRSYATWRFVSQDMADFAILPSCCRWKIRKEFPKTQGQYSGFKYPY

[2] = Plasma protein binding in human at 1 uM; assay type: ADME, cell-free; settings: read-out: PPB (converted)
[3] = Plasma protein binding in rat at 1 uM; assay type: ADME, cell-free; settings: read-out: PPB (converted)
[4] = Aqueous equilibrium solubility of the compound at pH 2; assay type: physicochemical
[5] = Aqueous equilibrium solubility of the compound at pH 7; assay type: physicochemical
[6] = Apparent permeability from apical to basolateral side in human Caco2 cells; assay type: ADME, cell-based; settings: Caco-2
[7] = Apparent permeability from basolateral to apical side in human Caco2 cells; assay type: ADME, cell-based; settings: Caco-2
[8] = Volume of distribution at steady state in rat at 1 mg/kg, iv and 5 mg/kg, po; assay type: ADME, organism-based; settings: in vivo, read-out: Vdss
[9] = Clearance in rat at 1 mg/kg, iv and 5 mg/kg, po; assay type: ADME, organism-based; settings: in vivo
[10] = Half life in rat at 1 mg/kg, iv and 5 mg/kg, po; assay type: ADME, organism-based; settings: in vivo
[11] = Oral bioavailability in rat at 5 mg/kg; assay type: ADME, organism-based; settings: in vivo
Brain = test: Drug uptake in Sprague-Dawley rat brain at 10 mg/kg, po at Tmax; assay type: ADME, organism-based; settings: in vivo
[12] = Plasma concentration in Sprague-Dawley rat at 10 mg/kg, po at Tmax; assay type: ADME, organism-based
Rattus norvegicus [13] = organism: Rattus norvegicus; test: Ex vivo receptor occupancy at P2X7 receptor in Sprague-Dawley rat hippocampus assessed as inhibition of [3H] A-804598 binding at Tmax by autoradiography; assay type: functional
P2X purinoceptor 7 [14] = biological target: T2, P2X purinoceptor 7 (Homo sapiens, UniProt Q99572); test: Antagonist activity at human P2X7 receptor expressed in 1321N1 cells assessed as inhibition of Bz-ATP-induced Ca2+ flux after 30 mins by FLIPR assay; assay type: cell-based
T2 sequence (Q99572 whole entry): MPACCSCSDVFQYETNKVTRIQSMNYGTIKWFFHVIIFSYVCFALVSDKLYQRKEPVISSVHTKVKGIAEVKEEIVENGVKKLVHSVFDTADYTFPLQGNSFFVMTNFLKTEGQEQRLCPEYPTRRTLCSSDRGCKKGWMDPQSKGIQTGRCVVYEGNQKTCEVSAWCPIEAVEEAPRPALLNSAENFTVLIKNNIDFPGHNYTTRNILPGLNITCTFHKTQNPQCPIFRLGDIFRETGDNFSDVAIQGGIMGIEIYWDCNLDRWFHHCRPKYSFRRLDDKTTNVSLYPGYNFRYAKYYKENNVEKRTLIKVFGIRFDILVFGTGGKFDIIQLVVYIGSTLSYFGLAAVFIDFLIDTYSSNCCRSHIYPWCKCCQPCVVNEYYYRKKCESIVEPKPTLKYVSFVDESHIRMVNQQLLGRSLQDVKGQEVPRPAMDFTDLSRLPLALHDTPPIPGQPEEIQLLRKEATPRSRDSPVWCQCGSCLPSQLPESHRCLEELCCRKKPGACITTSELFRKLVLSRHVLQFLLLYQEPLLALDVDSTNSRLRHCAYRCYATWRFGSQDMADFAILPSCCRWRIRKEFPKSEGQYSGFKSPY

[15] = Selectivity ratio of IC50 for rat P2X7 receptor to IC50 for human P2X7 receptor
[16] = Extraction ratio in human liver microsomes at 1 uM; assay type: ADME; settings: read-out: ERH
[17] = Extraction ratio in rat liver microsomes at 1 uM; assay type: ADME; settings: read-out: ERH
[18] = Efflux ratio of apparent permeability from basolateral to apical side over apical to basolateral side in human Caco2 cells; assay type: ADME, cell-based; settings: Caco-2
[19] = Ratio of drug level in brain to plasma in Sprague-Dawley rat at 10 mg/kg, po; assay type: ADME, organism-based; settings: read-out: BPR
Rattus norvegicus [20] = test: Ex vivo receptor occupancy at P2X7 receptor in po dosed Sprague-Dawley rat hippocampus assessed as inhibition of [3H]JNJ-54232334 binding after 30 mins; assay type: functional
[21] = Brain protein binding in Sprague-Dawley rat at 10 mg/kg, po; assay type: ADME, organism-based; settings: read-out: PB (converted)
[22] = Plasma protein binding in Sprague-Dawley rat at 10 mg/kg, po; assay type: ADME, organism-based; settings: read-out: PPB (converted)
[23] = biological target: Voltage-gated inwardly rectifying potassium channel KCNH2 (Homo sapiens, UniProt Q12809); test: Displacement of dofetilide from human ERG channel
Cytochrome P450 2C19 = Cytochrome P450 2C19 (Homo sapiens, UniProt P33261); test: Inhibition of CYP2C19 (unknown origin); assay type: ADME
[24] = Inhibition of CYP450 (unknown origin); assay type: ADME, Homo sapiens
Rattus norvegicus [25] = organism: Rattus norvegicus; test: animal or person; settings: Sprague-Dawley, P2X7
Description: Ex vivo receptor occupancy at P2X7 receptor in po dosed Sprague-Dawley rat hippocampus assessed as inhibition of [3H]JNJ-54232334 binding by measuring brain level after 30 mins

Rattus norvegicus [26] = organism: Rattus norvegicus; test: animal or person; settings: Sprague-Dawley, P2X7, Plasma
Description: Ex vivo receptor occupancy at P2X7 receptor in po dosed Sprague-Dawley rat hippocampus assessed as inhibition of [3H]JNJ-54232334 binding by measuring plasma level after 30 mins

[27] = Unbound brain to plasma partition ratio in Sprague-Dawley rat at 0.8 mg/kg, po; settings: read-out: K(p,uu,brain)

Chain of Cytochrome P450 2C19 (P33261 whole entry): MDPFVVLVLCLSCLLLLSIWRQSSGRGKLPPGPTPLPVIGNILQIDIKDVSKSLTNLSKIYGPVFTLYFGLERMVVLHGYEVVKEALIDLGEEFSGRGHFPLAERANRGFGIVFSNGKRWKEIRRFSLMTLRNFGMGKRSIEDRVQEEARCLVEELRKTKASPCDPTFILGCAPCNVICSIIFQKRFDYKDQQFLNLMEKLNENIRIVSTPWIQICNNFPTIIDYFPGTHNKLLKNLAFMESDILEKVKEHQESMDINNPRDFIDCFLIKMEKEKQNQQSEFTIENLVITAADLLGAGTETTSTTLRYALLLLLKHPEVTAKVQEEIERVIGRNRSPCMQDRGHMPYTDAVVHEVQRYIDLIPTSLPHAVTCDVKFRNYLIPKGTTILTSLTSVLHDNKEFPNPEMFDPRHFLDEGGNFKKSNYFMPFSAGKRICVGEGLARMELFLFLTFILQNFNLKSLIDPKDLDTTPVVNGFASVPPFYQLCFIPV
Chain of Voltage-gated inwardly rectifying potassium channel KCNH2 (Q12809 whole entry): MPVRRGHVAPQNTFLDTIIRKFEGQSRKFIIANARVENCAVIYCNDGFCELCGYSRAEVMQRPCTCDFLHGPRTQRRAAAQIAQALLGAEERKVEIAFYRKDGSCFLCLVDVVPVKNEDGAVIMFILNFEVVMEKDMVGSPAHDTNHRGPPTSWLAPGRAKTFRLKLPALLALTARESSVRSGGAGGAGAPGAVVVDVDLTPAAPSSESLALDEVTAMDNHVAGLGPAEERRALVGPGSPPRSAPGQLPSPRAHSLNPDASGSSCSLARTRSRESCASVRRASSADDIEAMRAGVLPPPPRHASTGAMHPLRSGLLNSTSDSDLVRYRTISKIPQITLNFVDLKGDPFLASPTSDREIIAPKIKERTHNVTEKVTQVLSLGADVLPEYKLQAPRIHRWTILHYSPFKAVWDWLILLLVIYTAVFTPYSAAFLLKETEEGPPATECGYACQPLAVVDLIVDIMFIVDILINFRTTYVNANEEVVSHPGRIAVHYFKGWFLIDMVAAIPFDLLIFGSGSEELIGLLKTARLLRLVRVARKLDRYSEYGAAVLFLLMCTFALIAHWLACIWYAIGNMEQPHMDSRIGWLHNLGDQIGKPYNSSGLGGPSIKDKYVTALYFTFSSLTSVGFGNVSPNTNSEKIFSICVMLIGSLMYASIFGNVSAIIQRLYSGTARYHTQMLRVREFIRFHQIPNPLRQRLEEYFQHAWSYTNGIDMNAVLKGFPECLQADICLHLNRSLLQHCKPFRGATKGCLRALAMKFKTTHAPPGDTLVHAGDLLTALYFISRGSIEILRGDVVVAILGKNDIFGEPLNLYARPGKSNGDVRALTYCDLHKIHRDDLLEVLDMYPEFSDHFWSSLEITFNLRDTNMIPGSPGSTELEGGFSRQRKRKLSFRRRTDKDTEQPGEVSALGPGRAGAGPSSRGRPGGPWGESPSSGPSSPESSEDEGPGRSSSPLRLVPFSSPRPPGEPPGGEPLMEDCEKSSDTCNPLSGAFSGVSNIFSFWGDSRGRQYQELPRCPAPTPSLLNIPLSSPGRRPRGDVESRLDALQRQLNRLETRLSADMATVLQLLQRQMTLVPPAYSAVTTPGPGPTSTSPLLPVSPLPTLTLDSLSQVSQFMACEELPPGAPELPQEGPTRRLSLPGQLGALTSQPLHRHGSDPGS

Structure (SMILES) | IC50 (P2X purinoceptor 7 [1]) | fraction unbound at 1 µM [2] | fraction unbound at 1 µM [3] | solubility thermodynamic [4] | solubility thermodynamic [5] | Papp A→B [6] | Papp B→A [7] | Vd [8] | clearance [9] | half-life [10] | bioavailability [11] | Drug uptake (Brain) | Cmax [12] | Occ (Rattus norvegicus [13]) | IC50 (P2X purinoceptor 7 [14]) | other results
C[C@H]1Cn2c(nnc2-c2cnccn2)C(=O)N1Cc1ccccc1Cl | > 10000 nM |  |  |  |  |  |  |  |  |  |  |  |  |  |  | 
C[C@H]1Cn2c(nnc2-c2cc[nH]n2)C(=O)N1Cc1cccc(C(F)(F)F)c1Cl |  | 0.08 | 0.1 | 41 µM (≈ 16.8 µg/mL) | 95 µM (≈ 39 µg/mL) | 5.4 ×10⁻⁶ cm/s | 65 ×10⁻⁶ cm/s | 4.2 L/kg | 13 mL/min/kg | 3.9 h | 81% | 41 ng/mL | 1310 ng/mL | 3% |  | 
C[C@H]1Cn2c(nnc2-c2ccc(F)cn2)C(=O)N1Cc1cccc(C(F)(F)F)c1Cl |  |  |  |  |  |  |  |  |  |  |  |  |  |  | 0.7 nM | 
O=C1c2nnn(-c3cnccn3)c2CCN1Cc1cccc(C(F)(F)F)c1Cl | > 10000 nM |  |  |  |  |  |  |  |  |  |  |  |  |  | > 10000 nM | 
O=C1c2nnc(-c3cnccn3)n2CCN1Cc1cccc(C(F)(F)F)c1Cl | 8670 nM |  |  |  |  |  |  |  |  |  |  |  |  |  | 440 nM | 
C[C@H]1Cn2c(nnc2-c2ncccn2)C(=O)N1Cc1cccc(C(F)(F)F)c1Cl |  | 0.21 | 0.17 | 176 µM (≈ 74.4 µg/mL) | 201 µM (≈ 85 µg/mL) | 4.4 ×10⁻⁶ cm/s | 64 ×10⁻⁶ cm/s | 3.3 L/kg | 11 mL/min/kg | 4.8 h | 80% | 116 ng/mL | 2790 ng/mL | 41% |  | 
C[C@H]1Cn2c(nnc2-c2cnccn2)C(=O)N1Cc1cccc(C(F)(F)F)c1 | 4140 nM |  |  |  |  |  |  |  |  |  |  |  |  |  | 3.6 nM | 
C[C@H]1Cn2c(nnc2-c2ccn(C)n2)C(=O)N1Cc1cccc(C(F)(F)F)c1Cl | 960 nM |  |  |  |  |  |  |  |  |  |  |  |  |  | 4.2 nM | Ratio IC50 [15]: 100
C[C@H]1Cn2c(nnc2-c2cccnc2)C(=O)N1Cc1cccc(C(F)(F)F)c1Cl | 88 nM | 0.22 | 0.17 | > 400 µM | 375 µM (≈ 158 µg/mL) | 6.2 ×10⁻⁶ cm/s | 73 ×10⁻⁶ cm/s | 5 L/kg | 21 mL/min/kg | 2.8 h | 82% | 43 ng/mL | 1060 ng/mL | 0% | 1.9 nM | hepatic extraction ratio at 1 µM [16]: 0.3; Ratio IC50 [15]: 100; hepatic extraction ratio at 1 µM [17]: 0.3; efflux ratio [18]: > 10
C[C@H]1Cn2c(nnc2-c2cnccn2)C(=O)N1Cc1c(Cl)cccc1Cl | 2380 nM |  |  |  |  |  |  |  |  |  |  |  |  |  |  | 
C[C@H]1Cn2c(nnc2-c2cnccn2)C(=O)N1Cc1cccc(C(F)(F)F)c1Cl |  | 0.13 | 0.1 | 89 µM (≈ 37.6 µg/mL) | 56 µM (≈ 23.7 µg/mL) | 47 ×10⁻⁶ cm/s | 50 ×10⁻⁶ cm/s | 1.5 L/kg | 19 mL/min/kg | 1 h | 125% | 672 ng/mL | 945 ng/mL | 78% |  | Kp [19]: 0.7; ED50 (Rattus norvegicus [20]): 0.8 mg/kg; Occ (Rattus norvegicus [20]): Dose-dependent effect; fraction unbound [21]: 0.046; fraction unbound [22]: 0.096; IC50 [23]: > 10000 nM; IC50 (Cytochrome P450 2C19): 7200 nM; IC50 [24]: > 10000 nM; EC50 (Rattus norvegicus [25]): 0.066 µg/mL (≈ 0.156 µM); EC50 (Rattus norvegicus [26]): 0.062 µg/mL (≈ 0.147 µM); Kp uu [27]: 0.51
C[C@H]1Cn2c(nnc2-c2ccccn2)C(=O)N1Cc1cccc(C(F)(F)F)c1Cl | 350 nM |  |  |  |  |  |  |  |  |  |  |  |  |  | 0.5 nM | Ratio IC50 [15]: 100
